This note sets out measurements from US20090018150A1, “5-Ht2b Receptor Antagonists” (ASTERAND UK LIMITED, priority 2003, published 2009).

Counter-ions that a name gives are not always drawn.

In experiment [1] the target is T1, cloned human 5-HT2A receptor (Homo sapiens, UniProt P28223).
T1 construct: purchased Euroscreen; host or cells: CHO-K1
Put plainly: Human 5-HT2A receptor binding assay. The note with it: [3H]ketanserin (1 nM) displacement, CHO-K1 cell membranes; read-out: 5-HT2A pKi (converted). Here is the method:
(§1) The binding affinity of ligands for human 5-HT2A and 5-HT2C receptors was determined using the following assay.
Membrane preparations from CHO-K1 cells expressing the cloned human 5-HT2A receptor were obtained (Euroscreen). The membranes were thawed rapidly and diluted in assay buffer containing Tris-HCl (50 mM, pH 7.7). The membranes were resuspended by homogenisation, prior to adding 15 μg of membranes to assay wells containing [3H]ketanserin (1 nM), assay buffer (50 mM Tris at pH 7.4) containing pargyline (10 μM), and test compounds (1×10^−10 to 1×10^−4M). Non specific binding was determined in the presence of 100 μM mianserin. After 15 minutes incubation at 37° C., the assay mixture was filtered through a combination of GF-C and GF-B filters, pre-soaked in 0.05% Brij, using a Brandel cell harvester, and were washed three times using ice cold Tris-HCl buffer (50 mM). Radioactivity retained on the filters was determined by liquid scintillation counting. For each test compound, the concentration that inhibited binding of [^3H]ketanserin by 50% was determined using curve fitting software (Prism). Kd values (concentration of ketanserin required to occupy 50% of the receptor binding sites at equilibrium) determined from saturation binding studies were then used to calculate inhibition dissociation constants (Ki) using the following equation: […]

The target in experiment [2] is T2, human cloned 5-HT2B receptors (Homo sapiens, UniProt P41595).
T2 construct: expressed in transfected cells; host or cells: CHO-K1
Put plainly: Human cloned 5-HT2B receptor binding assay. The note with it: [3H]LSD (1 nM) displacement, membranes of CHO-K1 cells expressing cloned 5-HT2B receptor; read-out: 5-HT2B pKi (converted). On the procedure: The binding affinity of the compounds for human cloned 5-HT2B receptors was determined using the following assay.
CHO-K1 cells expressing cloned 5-HT2B receptor were maintained in Ultra-CHO medium containing 400 μg/ml of G418, 100 U/ml penicillin, 100 μg/ml streptomycin, 2.5 μg/ml fungizone and 1-foetal bovine serum, in 95/5% O2/CO2 at 37° C. The cells were harvested using 0.25% trypsin and were centrifuged at 800 rpm for 8 minutes. The cells were homogenised in 50 mM HEPES buffer containing 1 mM disodium EDTA and 1 mM PMSF at pH 7.4, using a Dounce homogeniser (20 strokes). The homogenate was centrifuged at 2280 rpm (1000 g) and 4° C. for 10 minutes, after which the supernatant was removed by decanting. The pellet was re-homogenised as above, and the resulting supernatant removed and combined with that already obtained. The supernatant solution was then centrifuged at 18300 rpm (40000 g) for 10 minutes at 4° C. using a Sorvall centrifuge. The supernatant was removed, and the pellet was re-suspended in 50 mM buffer at pH 7.4 using a Ultra-turrax T25 Polytron, before centrifugation again at 40000 g as above. This wash procedure was repeated, after which the membrane preparation was stored at a concentration of 1 mg/ml at −80° C. until use.
The membranes were thawed rapidly and diluted in assay buffer containing Tris-HCl (50 mM, pH 7.4), ascorbic acid (0.1°) and calcium chloride (4 mM). The membranes were homogenised to resuspend them, prior to adding 10 or 15 μg of membranes to assay wells containing [^3H]LSD (1 nM), assay buffer (50 mM Tris, 4 mM calcium chloride and 0.1° ascorbic acid) containing pargyline (10 μM), and the test compounds (1×10^−10 to 1×10^−4M). Non specific binding was determined in the presence of 100 μM 5-HT. After 30 minutes incubation at 37° C., the assay mixture was filtered through a combination of GF-C and GF-B filters, pre-soaked in 1% polyethyleneimine, using a Brandel cell harvester, and were washed three times using 50 mM Tris-HCl. Radioactivity retained on the filters was determined by liquid scintillation counting. For each test compound, the concentration that inhibited binding of [^3H]LSD by 50% was determined using curve fitting software (Prism). Kd values (concentration of LSD required to occupy 50% of the receptor binding sites at equilibrium) determined from saturation binding studies were then used to calculate inhibition dissociation constants (Ki) using the following equation: […]
This approach follows that set out in Kenakin, T. P. Pharmacologic analysis of drug-receptor interaction. Raven Press, New York, 2nd Edition.

Experiment [3] deals with T3, cloned human 5-HT2C receptor (Homo sapiens, UniProt P28335).
T3 construct: purchased Euroscreen; host or cells: CHO-K1
T3 sequence (P28335 33-458): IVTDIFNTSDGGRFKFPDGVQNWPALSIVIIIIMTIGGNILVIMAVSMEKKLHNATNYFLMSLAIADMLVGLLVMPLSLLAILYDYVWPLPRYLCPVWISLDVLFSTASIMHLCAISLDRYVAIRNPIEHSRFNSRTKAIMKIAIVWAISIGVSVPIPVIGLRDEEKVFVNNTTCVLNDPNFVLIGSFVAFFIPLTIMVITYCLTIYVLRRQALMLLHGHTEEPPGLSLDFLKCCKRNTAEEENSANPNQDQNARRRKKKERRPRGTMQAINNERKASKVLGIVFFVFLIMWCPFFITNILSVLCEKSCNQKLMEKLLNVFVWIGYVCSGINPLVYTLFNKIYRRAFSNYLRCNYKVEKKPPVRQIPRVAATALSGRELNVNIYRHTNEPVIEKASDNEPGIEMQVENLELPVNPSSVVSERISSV
Put plainly: Human 5-HT2C receptor binding assay. The note with it: [3H]mesulergine (1 nM) displacement, CHO-K1 cell membranes; read-out: 5-HT2C pKi (converted). Here is the method:
as §1
Membrane preparations from CHO-K1 cells expressing the cloned human 5-HT2C receptor were obtained (Euroscreen). The membranes were thawed rapidly and diluted in assay buffer containing Tris-HCl (50 mM, pH 7.7), ascorbic acid (0.1%) and pargyline (10 μM). The membranes were resuspended by homogenisation, prior to adding 6 μg of membranes to assay wells containing [^3H]mesulergine (1 nM), assay buffer (50 mM Tris at pH 7.7 and 0.1% ascorbic acid) containing pargyline (10 μM), and test compounds (1×10^−10 to 1×10^−4M). Non specific binding was determined in the presence of 100 μM mianserin. After 30 minutes incubation at 37° C., the assay mixture was filtered through a combination of GF-C and GF-B filters, pre-soaked in 1% bovine serum albumin, using a Brandel cell harvester, and were washed three times using ice cold Tris-HCl buffer (50 mM). Radioactivity retained on the filters was determined by liquid scintillation counting. For each test compound, the concentration that inhibited binding of [^3H]mesulergine by 50% was determined using curve fitting software (Prism). Kd values (concentration of mesulergine required to occupy 50% of the receptor binding sites at equilibrium) determined from saturation binding studies were then used to calculate inhibition dissociation constants (Ki) using the following equation: […]

T2 sequence (P41595 whole entry): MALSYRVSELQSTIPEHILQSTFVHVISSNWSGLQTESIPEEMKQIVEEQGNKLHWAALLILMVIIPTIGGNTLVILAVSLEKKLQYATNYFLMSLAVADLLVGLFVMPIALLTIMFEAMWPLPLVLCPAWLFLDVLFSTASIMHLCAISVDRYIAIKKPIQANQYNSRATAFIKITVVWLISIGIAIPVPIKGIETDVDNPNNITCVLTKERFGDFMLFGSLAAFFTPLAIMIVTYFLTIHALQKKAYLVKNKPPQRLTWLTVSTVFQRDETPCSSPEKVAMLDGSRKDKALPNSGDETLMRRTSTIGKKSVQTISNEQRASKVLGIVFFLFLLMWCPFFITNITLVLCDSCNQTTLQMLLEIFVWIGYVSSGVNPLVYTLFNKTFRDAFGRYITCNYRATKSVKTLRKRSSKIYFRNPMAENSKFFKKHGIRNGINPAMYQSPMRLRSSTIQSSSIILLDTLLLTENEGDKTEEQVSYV
T1 sequence (P28223 whole entry): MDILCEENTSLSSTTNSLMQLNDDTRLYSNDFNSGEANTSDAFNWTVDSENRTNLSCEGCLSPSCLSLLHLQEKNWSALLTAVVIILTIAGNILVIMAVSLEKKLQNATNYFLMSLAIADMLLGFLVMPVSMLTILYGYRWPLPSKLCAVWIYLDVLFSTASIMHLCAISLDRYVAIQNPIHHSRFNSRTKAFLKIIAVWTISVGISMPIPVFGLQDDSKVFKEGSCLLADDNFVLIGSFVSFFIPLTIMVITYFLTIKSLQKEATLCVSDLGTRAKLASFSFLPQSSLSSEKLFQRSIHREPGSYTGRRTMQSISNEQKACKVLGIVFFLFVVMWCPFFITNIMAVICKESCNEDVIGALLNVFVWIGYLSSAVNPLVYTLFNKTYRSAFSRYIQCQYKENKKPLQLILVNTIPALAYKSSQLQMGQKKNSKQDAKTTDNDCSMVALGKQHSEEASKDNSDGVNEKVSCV

In the case of `Nc1nc(-c2cccc(-c3ccccc3)c2)c[nH]1` [Compound 108, 4-biphenyl-3-yl-1H-imidazol-2-ylamine], the values for the Ki in experiment [1], in experiment [2] and in experiment [3] were more than 0.316 µM, less than 0.1 µM and more than 0.1 µM, respectively.

Consider `Cc1cccc(-c2cccc(Nc3cc(C)nc(N)n3)c2)c1` [Compound 10E, 6-methyl-N^4-(3′-methyl-biphenyl-3-yl)-pyrimidine-2,4-diamine trifluoroacetic acid], for which the Ki was more than 0.1 µM in experiment [1], less than 0.1 µM in experiment [2] and more than 0.1 µM in experiment [3].

For `Cc1cc(Nc2cccc(O)c2)nc(N)n1` [Compound 2Q, 3-(2-amino-6-methyl-pyrimidin-4-ylamino)-phenol hydrochloride], the Ki in experiment [1] was more than 1 µM; in experiment [2] it was less than 1 µM; in experiment [3] it was more than 1 µM.

On to `CC(=O)Nc1nc(-c2cccc3sccc23)c[nH]1` [Compound 103L, N-(4-Benzo[b]thiophen-4-yl-1H-imidazol-2-yl)-acetamide], for which the Ki is more than 10 µM in experiment [1], less than 0.1 µM in experiment [2] and more than 10 µM in experiment [3].

Consider `CC(=O)Nc1ccc(Nc2cc(C)nc(N)n2)cc1` [Compound 2V, N-[4-(2-amino-6-methyl-pyrimidin-4-ylamino)-phenyl]-acetamide hydrochloride], for which the Ki in experiment [1] is more than 1 µM; in experiment [2] it was less than 1 µM; in experiment [3], more than 1 µM.

`Nc1nc(-c2ccc(F)c3ccccc23)c[nH]1` [Compound 104F, 4-(4-Fluoro-naphthalen-1-yl)-1H-imidazol-2-ylamine]: the Ki in experiment [1] is more than 1 µM; in experiment [2], less than 0.1 µM; in experiment [3], more than 1 µM.

Consider `Cc1cccc(-c2cccc(-c3cnc(N)o3)c2)c1` [Compound 209B, 5-(3′-Methyl-biphenyl-3-yl)-oxazol-2-ylamine], for which the Ki is more than 10 µM in experiment [1], less than 0.316 µM in experiment [2] and more than 10 µM in experiment [3].

Turning to `Nc1ncc(-c2cccc(-c3ccccc3Cl)c2)o1` [Compound 209E, 5-(2′-Chloro-biphenyl-3-yl)-oxazol-2-ylamine], the Ki in experiment [1] was more than 1 µM; in experiment [2], less than 0.316 µM; in experiment [3] it was more than 10 µM.

As to `COc1ccc(-c2cccc(C)c2)cc1-c1cnc(N)o1` [Compound 224C, 5-(4-Methoxy-3′-methyl-biphenyl-3-yl)-oxazol-2-ylamine, trifluoroacetic acid], the figures for the Ki in experiment [1], in experiment [2] and in experiment [3] were more than 1 µM, less than 1 µM and more than 1 µM, respectively.

`CC(=O)Nc1nc(-c2cccc3c(Br)cccc23)c[nH]1` [Compound 103H, N-[4-(5-Bromo-naphthalen-1-yl)-1H-imidazol-2-yl]-acetamide]: the Ki is more than 1 µM in experiment [1], less than 0.1 µM in experiment [2] and more than 1 µM in experiment [3].

Regarding `Cc1cc(Nc2ccc3c(c2)CCC3)nc(N)n1` [Compound 2J, N^4-indan-5-yl-6-methyl-pyrimidine-2,4-diamine hydrochloride], the Ki is more than 10 µM in experiment [1], less than 0.1 µM in experiment [2] and more than 1 µM in experiment [3].

For the compound `COc1c(-c2cnc(N)[nH]2)ccc2ccccc12` [Compound 104E, 4-(1-Methoxy-naphthalen-2-yl)-1H-imidazol-2-ylamine], the Ki in experiment [1] was more than 1 µM; in experiment [2], less than 0.1 µM; in experiment [3], more than 0.1 µM.

Regarding `CC(=O)Nc1nc(-c2cccc3ccccc23)c(C)[nH]1` [Compound 103I, N-(5-Methyl-4-naphthalen-1-yl-1H-imidazol-2-yl)-acetamide], the results for the Ki in experiment [1], in experiment [2] and in experiment [3] were more than 1 µM, less than 0.1 µM and more than 1 µM, respectively.

For `Cc1cc(Nc2cccc(Br)c2)nc(N)n1` [Compound 2AF, N^4-(3-bromo-phenyl)-6-methyl-pyrimidine-2,4-diamine trifluoroacetic acid], the Ki in experiment [1] is more than 3.16 µM; in experiment [2] it was less than 1 µM; in experiment [3] it was more than 1 µM.

Take `Cc1cc(Nc2ccc(Br)cc2)nc(N)n1` [Compound 2F, N^4-(4-bromo-phenyl)-6-methyl-pyrimidine-2,4-diamine hydrochloride]: the Ki in experiment [1] is more than 10 µM; in experiment [2], less than 1 µM; in experiment [3], more than 10 µM.

Regarding `Cc1cc(Nc2ccc(Oc3ccccc3)cc2)nc(N)n1` [Compound 2AE, 6-methyl-N^4-(4-phenoxy-phenyl)-pyrimidine-2,4-diamine hydrochloride], the figures for the Ki in experiment [1], in experiment [2] and in experiment [3] were more than 10 µM, less than 0.1 µM and more than 0.316 µM, respectively.

As for `COc1ccccc1-c1ccc(Nc2nc(N)n(C)n2)cc1` [Compound 411B, N^3-(2′-methoxy-biphenyl-4-yl)-7-methyl-1H-[1,2,4]triazole-3,5-diamine trifluoroacetic acid], the figures for the Ki in experiment [1], in experiment [2] and in experiment [3] were more than 1 µM, less than 1 µM and more than 1 µM, respectively.

`CC(C)c1[nH]c(N)nc1-c1cccc2ccccc12` [Compound 104K, 5-Isopropyl-4-naphthalen-1-yl-1H-imidazol-2-ylamine]: the values for the Ki in experiment [1], in experiment [2] and in experiment [3] were more than 0.1 µM, less than 0.1 µM and more than 0.316 µM, respectively.

As for `COc1ccccc1-c1cccc(-c2cnc(N)o2)c1` [Compound 209G, 5-(2′-Methoxy-biphenyl-3-yl)-oxazol-2-ylamine trifluoroacetic acid], the Ki is more than 1 µM in experiment [1], less than 0.1 µM in experiment [2] and more than 1 µM in experiment [3].

For `CCOc1ccc2ccccc2c1-c1c[nH]c(NC(C)=O)n1` [Compound 103A, N-[4-(2-Ethoxy-naphthalen-1-yl)-1H-imidazol-2-yl]-acetamide], the Ki was more than 3.16 µM in experiment [1], less than 0.1 µM in experiment [2] and more than 1 µM in experiment [3].
